Test results from US20080108611A1, “SUBSTITUTED THIENOPYRIMIDINE KINASE INHIBITORS” (priority 2006, published 2008).

Key:
VEGF-R2 = target: T1, VEGF-R2 (Rattus norvegicus, UniProt O08775); assay: VEGF-R2 Screening Assay; format: biochemical; details: rat VEGF-R2 kinase domain, 10 μM ATP
T1 construct: polyhistidine (N)
Description: (§1) A kinase reaction mixture was prepared containing 50 mM Tris-HCl at pH 8, 10 mM MgCl2, 0.1 mM Na3PO4, 1 mM DTT, 10 μM ATP, 0.025 μM biotinylated histone-H1 peptide substrate and 0.2 μCuries per well ^33P-γ-ATP (2000-3000 Ci/mmol). 70 μL of the kinase reaction mixture was dispensed into the well of a Streptavidin FlashPlate.
(§2) Test compound stock in 100% DMSO (1 μL) was added to the wells resulting in a final concentration of 1% DMSO in the reaction with a 100 μL final reaction volume. Each enzyme was diluted in 50 mM Tris-HCl pH=8.0, 0.1% BSA and 30 μL was added to each well to initiate the reaction. The reaction was incubated for one hour at 30° C. At the end of the 1 hr incubation, the reaction was terminated by aspirating the mixture from the plate and washing the wells twice with PBS containing 100 mM EDTA. The biotinylated peptide substrate became immobilized on the Flashplate™ and the incorporation of ^33P-γ-ATP was measured by reading the plate on a scintillation counter. Inhibition of the enzymatic activity was measured by observing a reduced amount of ^33P-γ-ATP incorporated into the immobilized peptide.
The VEGF-R2 enzyme is a fusion protein containing a polyhistidine tag at the N terminus followed by amino acids 786 to 1343 of the rat VEGF-R2 kinase domain (Accession number U93306). The assay used 150 ng of the N-terminal biotinylated peptide biotin-KHKKLAEGSAYEEV-amide (VEGF-R2) per well.
(§3) The IC50 was derived according to the procedure described in Example 1.

[1] = system: HeLa cervical adenocarcinoma; assay: Cell Proliferation Inhibition Assay (14C-thymidine incorporation), HeLa; format: cell-based; details: Homo sapiens; HeLa cells
Description: (§4) The ability of a test compound to inhibit unregulated cell proliferation was determined by measuring incorporation of ^14C-labelled thymidine into newly synthesized DNA within cell lines derived from carcinomas originating from several tissues. Accordingly, the anti-proliferative effect of a compound on cells with a variety of phenotypes may be determined.
(§5) Carcinoma cell lines include those such as HeLa cervical adenocarcinoma (American Type Culture Collection (ATCC), Virginia, Cat. #CCL-2), A375 malignant melanoma (ATCC CRL-1619), SK-OV-3 ovarian adenocarcinoma (ATCC HTB-77), HCT-116 colon carcinoma (CCL-247), PC-3 prostate adenocarcinoma (ATCC CRL-1435), and MDA-MB-231 (Xenogen Corp.)
(§6) The carcinoma cells were trypsinized and counted. The cells (3000-8000 count) were added to each well of a 96-well CytoStar tissue culture treated scintillating microplate (Amersham #RPNQ0160) in complete medium (100 μL) and the plate was then incubated in complete medium for 24 hrs at 37° C. in an […] atmosphere containing 5% CO2. Test compound (1 μL) in 100% DMSO was added to the plate test-wells with DMSO only added to control-wells. The plate was incubated in complete medium for a second 24 hr period at 37° C. in an atmosphere containing 5% CO2.
(§7) An aliquot of a solution of methyl ^14C-thymidine (56 mC/mmol) (NEN #NEC568 or Amersham #CFA532) and complete medium (20 uL to provide 0.2 μCi/well) was then added to each well and the plate was incubated for a third 24 hr period at 37° C. in an atmosphere containing 5% CO2. The plate contents were then discarded, the plate was washed twice with PBS (200 μL) and then PBS (200 μL) was added to each well. The plate was sealed and the degree of methyl ^14C-thymidine incorporation was quantified on a Packard Top Count.

Aurora-A = target: T2, Aurora-A (Mus musculus, UniProt P97477); assay: Aurora-A Screening Assay; format: biochemical; details: murine Aurora-A full length, 10 μM ATP
T2 construct: followed by the full length protein encoding the murine Aurora-A; polyhistidine (N); made in house; host or cells: Sf9 insect cells
T2 sequence (P97477 1-395): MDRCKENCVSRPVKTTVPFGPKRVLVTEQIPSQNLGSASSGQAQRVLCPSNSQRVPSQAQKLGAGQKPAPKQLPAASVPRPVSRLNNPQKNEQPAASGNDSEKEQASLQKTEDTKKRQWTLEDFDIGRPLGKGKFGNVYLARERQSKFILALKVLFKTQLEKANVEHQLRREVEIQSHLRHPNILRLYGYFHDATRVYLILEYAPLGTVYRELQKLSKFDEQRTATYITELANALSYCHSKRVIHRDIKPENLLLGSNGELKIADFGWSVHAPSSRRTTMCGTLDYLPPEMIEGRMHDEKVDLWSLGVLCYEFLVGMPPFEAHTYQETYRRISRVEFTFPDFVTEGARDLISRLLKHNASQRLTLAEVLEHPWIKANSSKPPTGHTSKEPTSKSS
Description: as §1, §2
Aurora-A is a fusion protein containing a polyhistidine tag at the N terminus followed by the full length protein encoding the murine Aurora-A (Accession number GB BC014711) expressed and purified from sf9 insect cells. The assay used 400 ng of the N-terminal biotinylated peptide biotin-GRTGRRNSI-amide (Aurora-A) per well.
as §3

A375 malignant melanoma = assay: Cell Proliferation Inhibition Assay (14C-thymidine incorporation), A375; format: cell-based; details: Homo sapiens, A-375; A375 cells
Description: as §4, §5, §6, §7

HER-2 = target: T3, HER-2 (Homo sapiens, UniProt P04626); assay: HER-2 Kinase Assay; format: biochemical; details: GST-HER2, 1 μM ATP
T3 construct: the nucleotides encoding amino acids 679 to 1255 of HER-2; HIS6-Thrombin (His6 tag and thrombin site) (N); purchased Proqinase (Freiburg, Germany)
Description: HER-2 kinase was purified at Proqinase (Freiburg, Germany) from a construct that consisted of a fusion of GST (Glutathione-S-Transferase), HIS6-Thrombin and the nucleotides encoding amino acids 679 to 1255 of HER-2.
A mixture of a 10× kinase reaction buffer (600 mM Hepes at pH 7.5, 30 mM Magnesium Chloride, 0.03 mM Sodium Vanadate and 500 μg/mL PEG 20,000), DTT (1.2 mM final from a 10 mM stock), ATP (1 μM from a 10 mM stock), biotinylated polyGluTyr (1.5 ng/μL final from stock of 1 μg/μL prepared by Upstate Biotechnologies, Lake Placid, N.Y.), Manganese Chloride (3 mM final from a 1 M stock), γ-^33P-ATP (10 μCi/μL stock) and water (70 μL/well) was added to each well of a Streptavidin Flashplate (Cat. # SMP103, NEN, Boston, Mass.).
Test compound stock (1 μL) was added to the appropriate wells. Diluted GSTHER2 kinase (6.7 ng/μL diluted into 50 mM Tris-HCl at pH 8.0 and 0.1% bovine serum albumin) (30 μL) was added (total volume of 200 ng/well) to initiate the reactions.
The reaction plates were incubated at 30° C. for 1 hr. The reaction was terminated by aspirating the reaction mixture from the plate wells and washing the wells three times with a 1×PBS stop buffer (300 μL) and 100 mM EDTA. After the final wash, the same stop buffer (200 μL) was again added to the wells. The plates were then sealed and read on the TopCount scintillation counter. The IC50 was derived according to the procedure described in Example 1.

HCT-116 colon carcinoma = assay: Cell Proliferation Inhibition Assay (14C-thymidine incorporation), HCT116; format: cell-based; details: Homo sapiens, HCT116 cells
Description: as §4, §5, §6, §7

T1 sequence (O08775 786-1343): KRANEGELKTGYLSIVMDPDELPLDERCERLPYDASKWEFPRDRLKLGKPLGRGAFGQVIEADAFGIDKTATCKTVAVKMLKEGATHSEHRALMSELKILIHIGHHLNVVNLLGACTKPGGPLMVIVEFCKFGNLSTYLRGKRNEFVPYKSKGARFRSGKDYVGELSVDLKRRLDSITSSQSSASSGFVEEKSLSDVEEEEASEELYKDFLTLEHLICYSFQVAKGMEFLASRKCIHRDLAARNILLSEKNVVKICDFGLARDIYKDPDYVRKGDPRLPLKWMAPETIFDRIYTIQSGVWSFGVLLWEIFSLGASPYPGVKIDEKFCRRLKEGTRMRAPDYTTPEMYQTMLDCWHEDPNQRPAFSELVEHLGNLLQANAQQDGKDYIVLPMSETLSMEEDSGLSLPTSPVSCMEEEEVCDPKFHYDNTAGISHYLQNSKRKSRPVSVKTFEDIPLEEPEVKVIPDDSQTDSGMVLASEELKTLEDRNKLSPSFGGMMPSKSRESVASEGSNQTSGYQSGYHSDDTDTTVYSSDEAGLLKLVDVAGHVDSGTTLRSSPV
T3 sequence (P04626 679-1255): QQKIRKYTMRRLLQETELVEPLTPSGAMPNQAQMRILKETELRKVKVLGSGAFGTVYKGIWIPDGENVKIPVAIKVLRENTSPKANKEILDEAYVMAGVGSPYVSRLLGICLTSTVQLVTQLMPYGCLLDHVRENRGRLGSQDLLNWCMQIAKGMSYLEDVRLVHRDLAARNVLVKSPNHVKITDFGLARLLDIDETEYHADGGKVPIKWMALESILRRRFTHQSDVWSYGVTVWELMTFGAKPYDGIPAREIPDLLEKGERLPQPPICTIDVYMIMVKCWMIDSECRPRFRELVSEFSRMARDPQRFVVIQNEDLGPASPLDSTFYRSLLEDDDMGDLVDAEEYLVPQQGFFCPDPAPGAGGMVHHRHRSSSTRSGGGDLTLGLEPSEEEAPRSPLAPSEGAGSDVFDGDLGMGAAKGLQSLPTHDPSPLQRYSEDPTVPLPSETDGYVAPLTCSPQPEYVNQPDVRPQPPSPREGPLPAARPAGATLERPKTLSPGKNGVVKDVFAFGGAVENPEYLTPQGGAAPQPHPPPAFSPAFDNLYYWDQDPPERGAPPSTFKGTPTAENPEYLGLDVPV

| SMILES | IC50 (VEGF-R2) [µM] | IC50 [1] [µM] | IC50 (Aurora-A) [µM] | IC50 (A375 malignant melanoma) [µM] | IC50 (HER-2) [µM] | IC50 (HCT-116 colon carcinoma) [µM] |
| --- | --- | --- | --- | --- | --- | --- |
| Cc1c(C(=O)NCCN2CCOCC2)sc2ncnc(Nc3ccc(NC(=O)c4ccccc4)cc3)c12 [Cpd 25, 4-(4-benzoylamino-phenylamino)-5-methyl-thieno[2,3-d]pyrimidine-6-carboxylic acid (2-morpholin-4-yl-ethyl)-amide] | > 100 | > 10 | > 10 | > 10 | > 100 | > 10 |
| Cc1c(C(=O)NCCCN2CCOCC2)sc2ncnc(Nc3ccc(NC(=O)c4ccccc4)cc3)c12 [Cpd 26, 4-(4-benzoylamino-phenylamino)-5-methyl-thieno[2,3-d]pyrimidine-6-carboxylic acid (3-morpholin-4-yl-propyl)-amide] | > 100 | > 10 | > 1 | > 10 | > 10 | > 10 |
